Structures can show the parent of a compound that is named as a salt.

One may read the IC50 as the concentration needed to halve the response being measured. Low values mean greater potency in that assay, high ones weaker potency in that assay.

In this assay the target is IRAK4 (Homo sapiens (Human), UniProt Q9NWZ3). The experiment in a line: IRAK4 Kinase Assay (IMAP fluorescence polarization). The assay is classed as biochemical. The conditions noted are these: 0.5 nM GST tagged IRAK4, 100 μM ATP, 30 minutes at 25° C., IMAP FP. As for the experimental part: The kinase activity of IRAK4 is determined by its ability to catalyze the phosphorylation of a fluorescent polypeptide substrate. The extent of phosphorylation is measured using the IMAP technology (Molecular Devices) where the phosphorylated fluorescent substrate binds to the large M (III)-based nanoparticles which reduces the rotational speed of the substrate and thus increases its fluorescent polarization (FP).
Chain of IRAK4 (Q9NWZ3 whole entry): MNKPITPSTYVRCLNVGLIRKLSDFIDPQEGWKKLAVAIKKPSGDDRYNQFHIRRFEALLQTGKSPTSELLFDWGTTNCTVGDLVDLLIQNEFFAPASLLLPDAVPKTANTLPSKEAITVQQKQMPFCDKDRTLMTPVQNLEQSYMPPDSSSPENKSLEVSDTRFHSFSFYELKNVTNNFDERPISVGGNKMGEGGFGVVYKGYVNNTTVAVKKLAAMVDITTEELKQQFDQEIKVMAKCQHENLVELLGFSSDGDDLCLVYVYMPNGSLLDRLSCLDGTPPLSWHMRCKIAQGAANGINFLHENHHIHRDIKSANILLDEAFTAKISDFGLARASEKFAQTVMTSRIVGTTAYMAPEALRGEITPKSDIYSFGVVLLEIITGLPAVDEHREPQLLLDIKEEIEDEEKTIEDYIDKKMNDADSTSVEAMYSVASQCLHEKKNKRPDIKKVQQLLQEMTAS
20 μL reaction mixture contains 10 mM TriHCl, pH 7.2, 0.5 nM GST tagged IRAK4 (SignalChem), 100 nM fluorescent peptide substrate (RP7030, Molecular Devices), 100 μM ATP, 1 mM DDT, 1 mM MgCl2, and 0.01% Tween 20. The reaction is initiated by the addition of ATP. After incubation for 30 minutes at 25° C., 60 μL of Progressive IMAP Reagent (Molecular Devices) is added to stop the reaction. Change in RP7030's FP is determined by a FP reader (Analyst HT, LJL BioSystems).
(Fluorescence polarisation rises when a labelled molecule tumbles more slowly, as on binding a larger partner.)
`O=C(Nc1ccsc1C(F)(F)F)c1ccc2ccc(N3C[C@@H]4CC[C@H]3CN4)nn12` (single isomer, unassigned) [Example 113, 2-[(1S,4S)- or (1R,4R)-2,5-diazabicyclo[2.2.2]oct-2-yl]-N-[2-(trifluoromethyl)thiophen-3-yl]pyrrolo[1,2-b]pyridazine-7-carboxamide trifluoroacetate] yielded an IC50 of 1220 nM. As for `O=C(Nc1ccsc1C(F)(F)F)c1ccc2ccc(N3C[C@H]4CC[C@@H]3CN4)nn12` (single isomer, unassigned) [Example 114, 2-[(1S,4S)- or (1R,4R)-2,5-diazabicyclo[2.2.2]oct-2-yl]-N-[2-(trifluoromethyl)thiophen-3-yl]pyrrolo[1,2-b]pyridazine-7-carboxamide trifluoroacetate], the IC50 worked out at 1770 nM. Under `Cn1cc(NC(=O)c2ccc3ccc(N4C[C@@H]5CNC[C@H]4C5)nn23)c(C(F)F)n1` (single isomer, unassigned) [Example 125, 2-[(1S,5R)- or (1R,5S)-3,6-diazabicyclo[3.2.1]oct-6-yl]-N-[3-(difluoromethyl)-1-methyl-1H-pyrazol-4-yl]pyrrolo[1,2-b]pyridazine-7-carboxamide] stands 5 nM; under `Cn1cc(NC(=O)c2ccc3ccc(N4C[C@H]5CNC[C@@H]4C5)nn23)c(C(F)F)n1` (single isomer, unassigned) [Example 126, 2-[(1S,5R)- or (1R,5S)-3,6-diazabicyclo[3.2.1]oct-6-yl]-N-[3-(difluoromethyl)-1-methyl-1H-pyrazol-4-yl]pyrrolo[1,2-b]pyridazine-7-carboxamide], 14 nM. Then `Cn1cc(NC(=O)c2ccc3ccc(N[C@@H]4CCCC[C@@H]4N)nn23)c(C(F)(F)F)n1` [Example 1, 2-(((1R,2S)-2-Aminocyclohexyl)amino)-N-(1-methyl-3-(trifluoromethyl)-1H-pyrazol-4-yl)pyrrolo[1,2-b]pyridazine-7-carboxamide], with 5 nM; and `Cn1cc(NC(=O)c2ccc3ccc(N[C@@H]4CCCC[C@@H]4O)nn23)c(C(F)(F)F)n1` [Example 5, 2-{[(1R,2S)-2-hydroxycyclo-hexyl]amino}-N-[1-methyl-3-(trifluoromethyl)-1H-pyrazol-4-yl]pyrrolo[1,2-b]pyridazine-7-carboxamide trifluoroacetate], with 122 nM; and `Cn1cc(NC(=O)c2ccc3ccc(N[C@@H]4CCCNC4)nn23)c(C(F)(F)F)n1` [Example 6, N-[1-methyl-3-(trifluoromethyl)-1H-pyrazol-4-yl]-2-[(3R)-piperidin-3-ylamino]pyrrolo[1,2-b]pyridazine-7-carboxamide trifluoroacetate], with 1 nM. `Cn1cc(NC(=O)c2ccc3ccc(N[C@@H]4CCCC(F)(F)[C@@H]4N)nn23)c(C(F)(F)F)n1` [Example 7, 2-{[(1R,2R)-2-amino-3,3-difluorocyclo-hexyl]amino}-N-[1-methyl-3-(trifluoromethyl)-1H-pyrazol-4-yl]pyrrolo[1,2-b]pyridazine-7-carboxamide trifluoroacetate] came in with an IC50 of 189 nM. Against the preceding compound, the IC50 is about 190-fold higher. The compound `Cn1cc(NC(=O)c2ccc3ccc(N4CC5CCC4CN5)nn23)c(C(F)(F)F)n1` (stereo not drawn) [Example 8, 2-(2,5-diazabicyclo[2.2.2]oct-2-yl)-N-[1-methyl-3-(trifluoromethyl)-1H-pyrazol-4-yl]pyrrolo[1,2-b]pyridazine-7-carboxamide] showed an IC50 of 19 nM. `Cn1cc(NC(=O)c2ccc3ccc(N4CCNCC5(CC5)C4)nn23)c(C(F)(F)F)n1` [Example 9, 2-(5,8-diazaspiro[2.6]non-5-yl)-N-[1-methyl-3-(trifluoromethyl)-1H-pyrazol-4-yl]pyrrolo[1,2-b]pyridazine-7-carboxamide trifluoroacetate]: half-maximal inhibition (IC50) was put at 27 nM. In turn, `Cn1cc(NC(=O)c2ccc3ccc(N4CCCNCC4)nn23)c(C(F)(F)F)n1` [Example 10, 2-(1,4-diazepan-1-yl)-N-[1-methyl-3-(trifluoromethyl)-1H-pyrazol-4-yl]pyrrolo[1,2-b]pyridazine-7-carboxamide trifluoroacetate] registered a half-maximal inhibitory concentration (IC50) of 33 nM. Compound `Cn1cc(NC(=O)c2ccc3ccc(N4CC5CCC4CN5)nn23)c(C(F)(F)F)n1` (stereo not drawn) [Example 11, 2-(2,5-diazabicyclo[2.2.2]oct-2-yl)-N-[1-methyl-3-(trifluoromethyl)-1H-pyrazol-4-yl]pyrrolo[1,2-b]pyridazine-7-carboxamide] displayed a half-inhibitory concentration (IC50) of 27 nM. The compound `Cn1cc(NC(=O)c2ccc3ccc(N4CCC[C@@H](N)C4)nn23)c(C(F)(F)F)n1` [Example 12, 2-[(3R)-3-aminopiperidin-1-yl]-N-[1-methyl-3-(trifluoromethyl)-1H-pyrazol-4-yl]pyrrolo[1,2-b]pyridazine-7-carboxamide trifluoroacetate] returned an IC50 of 0.5 nM.

`Cn1cc(NC(=O)c2ccc3ccc(N4CCC[C@@H](N)C4)nn23)c(C(F)F)n1` [Example 13, 2-[(3R)-3-aminopiperidin-1-yl]-N-[3-(difluoromethyl)-1-methyl-1H-pyrazol-4-yl]pyrrolo[1,2-b]pyridazine-7-carboxamide trifluoroacetate]: the midpoint of inhibition, the IC50, lay at 0.5 nM. Compound `Cn1cc(NC(=O)c2ccc3ccc(N4CCNCC4)nn23)c(C(F)F)n1` [Example 14, N-[3-(difluoromethyl)-1-methyl-1H-pyrazol-4-yl]-2-piperazin-1-ylpyrrolo[1,2-b]pyridazine-7-carboxamide trifluoroacetate] came in with an IC50 of 2 nM. In turn, `Cn1cc(NC(=O)c2ccc3ccc(N4CCCNCC4)nn23)c(C(F)F)n1` [Example 15, 2-(1,4-diazepan-1-yl)-N-[3-(difluoromethyl)-1-methyl-1H-pyrazol-4-yl]pyrrolo[1,2-b]pyridazine-7-carboxamide trifluoroacetate] yielded an IC50 of 2 nM. As for `Cn1cc(NC(=O)c2ccc3ccc(N[C@@H]4CCCNC4)nn23)c(C(F)F)n1` [Example 16, N-[3-(difluoromethyl)-1-methyl-1H-pyrazol-4-yl]-2-[(3R)-piperidin-3-ylamino]pyrrolo[1,2-b]pyridazine-7-carboxamide trifluoroacetate], the IC50 was 0.9 nM. For the compound `Cn1cc(NC(=O)c2ccc3ccc(N4CC5CCC4CN5)nn23)c(C(F)F)n1` (stereo not drawn) [Example 17, 2-(2,5-diazabicyclo[2.2.2]oct-2-yl)-N-[3-(difluoromethyl)-1-methyl-1H-pyrazol-4-yl]pyrrolo[1,2-b]pyridazine-7-carboxamide trifluoroacetate], the IC50 is 4 nM. `Cn1cc(NC(=O)c2ccc3ccc(N4CCNCC5(CC5)C4)nn23)c(C(F)F)n1` [Example 18, 2-(5,8-diazaspiro[2.6]non-5-yl)-N-[3-(difluoromethyl)-1-methyl-1H-pyrazol-4-yl]pyrrolo[1,2-b]pyridazine-7-carboxamide trifluoroacetate] came in with an IC50 of 2 nM. This IC50 is about 2-fold lower than that of the compound before.

`Cn1cc(NC(=O)c2ccc3ccc(N[C@@H]4CCCC[C@@H]4N)nn23)c(C(F)F)n1` [Example 19, 2-{[(1R,2S)-2-aminocyclo-hexyl]amino}-N-[3-(difluoromethyl)-1-methyl-1H-pyrazol-4-yl]pyrrolo[1,2-b]pyridazine-7-carboxamide trifluoroacetate] displayed an IC50 of 1 nM.

Compound `Cn1cc(NC(=O)c2ccc3ccc(N[C@@H]4CCCC[C@@H]4O)nn23)c(C(F)F)n1` [Example 20, N-[3-(difluoromethyl)-1-methyl-1H-pyrazol-4-yl]-2-{[(1R,2S)-2-hydroxycyclohexyl]amino}pyrrolo[1,2-b]pyridazine-7-carboxamide trifluoroacetate] yielded an IC50 of 11 nM.

The record behind these values is US10040798B2, “Pyrrolopyridazine inhibitors of IRAK4 activity” (MERCK SHARP & DOHME CORP., priority 2015, dated 2018).
